# Results as given in patent US12667122B2, “Taste-modulation of cooling agents in beverages” (priority 2019, dated 2026).
# Key:
# [1] = Beverage swallowing test: duration of cooling in throat and chest and adverse taste ranking; format: in vivo, human; conditions: for Onset of cooling action in the chest (in words): in vivo; for Duration of effects (in words): compared with the shorter DIPA analogs; for Duration Cool: 20 mg in 50 mL (0.4 mg/mL); for Min. (cooling): 50 mL beverage
# From the text: DIPA compounds dissolved in water have an unpleasant, bitter, and metallic taste. The goal of the experiments was to find an adjunct that would make the DIPA beverage palatable. The anatomic sites for bitterness (adverse taste) are primarily on the dorsal surface of the posterior one-third of the tongue. The coolness and refreshment areas are on the hypopharynx and the upper one-third of the esophagus (FIG. 1). These are two different anatomic sites. Sensations of coolness from the oral cavity and oropharynx are not the primary targets. The esophagus is in the center of the thorax. When its lumen feels “cool,” this is like turning on the central air conditioner for the body. The goal of the beverage is to turn on this central air conditioning for at least 30 min and preferably longer without adverse tastes in the oral cavity. That is, the goal is to produce cool in the center of the chest but without bitter taste. A standard procedure was set. The cooling agent at various concentrations was made up to 50 mL with a liquid in a plastic cup (Flak Tek, Inc. South Carolina), beaker, whiskey glass, or bottle. For example, the final concentration of the coolant in the test solution may range from 0.1 to 0.5 mg/mL. The temperature of the liquid was measured and then swallowed. For example, 50 mL could be swallowed in five gulps or sipped. The duration of cooling in the throat and chest was recorded at various intervals until the cooling disappeared. The ranking of adverse taste was on a scale of 0 (no adverse taste), 1 (mild taste), 2 (moderate taste), or 3 (adverse taste). The value was for at least three trials per beverage.
# Examples of test procedures and results. The usual method was to prepare a 2-mL vial containing a DIPA dissolved in water. The contents of the vial were added to beverages such as beer, soda drinks, fruit juice, coffee, tea, or water. A taste-modulating adjunct such as a sweetener can be in the 2-mL vial or present in the beverage. The drink is gulped at about 5 mL per swallow. The time and temperatures are noted. The onset of coolness in the center of the upper chest usually occurs within 3 min. For active compounds, this effect was pleasant and, depending on dose, could last for 10 minutes, an hour, or more. Gulping the liquid was important. When held in the mouth, the drink is cool and may have taste, but cooling in the center of the chest is reduced. Thus, sipping is not the correct method of drinking. Using these methods, a bottle of beer (e.g., ˜330 mL containing 33 mg of DIPA-1-9), if drank in a leisurely setting for one hour, can provide comfortable body cooling for 3 hr. Similarly, a smaller bottle of carbonated soda water (e.g., 200 mL), containing 15 mg of DIPA-1-6 produced immediate cooling relief for 30 min for individuals, for example, taking a break from playing tennis in the heat. For pharmaceutical uses, a tinted bottle with 20 mg of DIPA-1-9 in 50 mL of water with Splenda's Monk Fruit dissolved in it would be palatable and relieve the discomforts of indigestion.
# [2] = as above; format: in vivo, human; conditions: for Duration of Cooling: 0.4 mg/mL in Monk fruit sweetened water (1 pack Splenda Monk Fruit per 100 mL), 30 mL, throat; for Dose sufficient for a robust, immediate cooling response: in 15 mL
# [3] = Water solubility of 1-dialkylphosphorylalkanes; format: physicochemical
# From the text: The DIPA compounds are colorless liquids with a density less than water. These structures differ from those described by Rowsell and Spring U.S. Pat. No. 4,070,496 because '496 structures have their “head” (phosphine oxide group) covered by larger, more lipophilic groups. […] The applicant synthesized these analogs (which are achiral, by contrast to the structures of '496, which are >95% chiral). […] This increased water-solubility is striking (Table 3). Additional details on the bioactivity and pharmacology of these DIPA can be found in the paper by Yang et al., [(2017). A novel TRPM8 agonist relieves dry eye discomfort. BMC Ophthalmology, 17(1). https://doi.org/10.1186/s12886-017-0495-2], incorporated herein by reference.
# [4] = target: TRPM8 receptor (Homo sapiens, UniProt Q7Z2W7); assay: TRPM8 receptor agonist activity; format: cell-based
# TRPM8 receptor, sequence (Q7Z2W7 whole entry): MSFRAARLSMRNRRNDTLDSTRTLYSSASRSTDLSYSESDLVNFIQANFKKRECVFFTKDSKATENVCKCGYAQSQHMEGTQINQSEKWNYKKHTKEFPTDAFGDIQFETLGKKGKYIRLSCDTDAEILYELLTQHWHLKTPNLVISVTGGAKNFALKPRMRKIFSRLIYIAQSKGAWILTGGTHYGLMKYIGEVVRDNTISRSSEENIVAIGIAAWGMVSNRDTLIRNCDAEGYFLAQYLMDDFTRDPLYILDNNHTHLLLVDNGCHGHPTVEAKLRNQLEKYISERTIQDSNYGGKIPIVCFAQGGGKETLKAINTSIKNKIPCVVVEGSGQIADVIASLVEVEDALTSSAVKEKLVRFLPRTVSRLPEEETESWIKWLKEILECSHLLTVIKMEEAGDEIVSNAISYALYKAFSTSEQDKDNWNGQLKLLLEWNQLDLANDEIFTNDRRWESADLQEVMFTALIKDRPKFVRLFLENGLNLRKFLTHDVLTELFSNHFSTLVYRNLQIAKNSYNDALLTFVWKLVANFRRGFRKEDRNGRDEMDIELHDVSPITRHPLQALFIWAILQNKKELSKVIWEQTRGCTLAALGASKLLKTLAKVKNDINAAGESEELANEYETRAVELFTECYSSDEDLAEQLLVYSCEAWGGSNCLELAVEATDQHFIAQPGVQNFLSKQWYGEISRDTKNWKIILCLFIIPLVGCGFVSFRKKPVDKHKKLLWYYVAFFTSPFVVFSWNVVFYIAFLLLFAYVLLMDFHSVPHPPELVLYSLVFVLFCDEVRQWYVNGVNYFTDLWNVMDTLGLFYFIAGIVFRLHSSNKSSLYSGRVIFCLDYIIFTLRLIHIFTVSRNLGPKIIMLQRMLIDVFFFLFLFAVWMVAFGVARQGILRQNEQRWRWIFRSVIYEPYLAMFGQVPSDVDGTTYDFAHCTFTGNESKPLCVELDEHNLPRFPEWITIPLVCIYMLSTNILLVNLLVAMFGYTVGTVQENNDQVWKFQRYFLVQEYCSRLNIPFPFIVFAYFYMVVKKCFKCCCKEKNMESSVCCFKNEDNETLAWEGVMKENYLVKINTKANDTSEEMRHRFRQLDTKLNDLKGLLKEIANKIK
# [5] = target: T1, TRPA1 (Homo sapiens, UniProt O75762); assay: Activation of TRPA1-transfected cells; format: cell-based
# T1 construct: expressed in transfected cells
# T1 sequence (O75762 whole entry): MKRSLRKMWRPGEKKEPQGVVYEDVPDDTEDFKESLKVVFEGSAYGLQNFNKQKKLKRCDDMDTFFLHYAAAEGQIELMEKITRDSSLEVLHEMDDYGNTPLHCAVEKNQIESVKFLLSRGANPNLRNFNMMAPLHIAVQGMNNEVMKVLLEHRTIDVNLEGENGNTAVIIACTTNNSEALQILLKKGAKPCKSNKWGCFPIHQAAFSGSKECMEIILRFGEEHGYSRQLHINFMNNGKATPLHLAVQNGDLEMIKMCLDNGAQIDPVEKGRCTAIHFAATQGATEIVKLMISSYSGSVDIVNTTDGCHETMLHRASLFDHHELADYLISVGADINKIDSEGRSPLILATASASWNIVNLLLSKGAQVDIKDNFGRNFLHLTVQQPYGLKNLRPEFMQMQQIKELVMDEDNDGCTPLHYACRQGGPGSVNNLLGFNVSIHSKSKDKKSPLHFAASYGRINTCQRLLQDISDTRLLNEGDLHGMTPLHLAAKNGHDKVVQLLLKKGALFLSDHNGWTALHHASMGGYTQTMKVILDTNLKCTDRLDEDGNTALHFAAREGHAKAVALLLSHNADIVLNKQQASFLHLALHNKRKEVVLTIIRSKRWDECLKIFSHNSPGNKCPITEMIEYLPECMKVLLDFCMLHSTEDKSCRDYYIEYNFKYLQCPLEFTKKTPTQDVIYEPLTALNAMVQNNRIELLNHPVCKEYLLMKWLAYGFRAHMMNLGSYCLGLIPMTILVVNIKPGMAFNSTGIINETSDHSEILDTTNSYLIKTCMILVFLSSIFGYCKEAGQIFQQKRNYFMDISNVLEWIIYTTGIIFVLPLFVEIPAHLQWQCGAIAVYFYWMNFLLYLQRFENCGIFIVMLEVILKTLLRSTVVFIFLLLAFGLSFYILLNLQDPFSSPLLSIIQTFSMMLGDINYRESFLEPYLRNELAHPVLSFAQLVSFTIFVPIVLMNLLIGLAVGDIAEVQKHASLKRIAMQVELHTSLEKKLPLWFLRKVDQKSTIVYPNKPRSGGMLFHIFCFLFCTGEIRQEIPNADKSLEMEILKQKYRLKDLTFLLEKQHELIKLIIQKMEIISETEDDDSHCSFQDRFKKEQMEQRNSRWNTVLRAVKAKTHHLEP
# [6] = DIPA cooling on the effects of a hotpot meal; format: in vivo, human; conditions: 0.5 mg/mL in water containing 1 packet of Splenda's Monk Fruit sweetener per 200 mL
# From the text: DIPA Cooling on the effects of a “hotpot” meal. A hotpot meal has been prevalent in central China (Sichuan province) for over a thousand years and has become very popular in many parts of Asia today. It is a family affair with a boiling pot of broth in the middle of the table, and everyone cooks food in the broth. Exceptionally spicy chili pepper is in the soup, and even in summer, the air-conditioning is off, so everybody sweats. The general idea is to get so hot that one becomes desensitized to the hot weather. […] Another method for relief from the hotpot is to incorporate it into a beer at DIPA-1-9 0.1 mg/ml, and commercialize it as “HotPot Beer.”
# [7] = target: T2, TRPV1 (Homo sapiens, UniProt Q8NER1); assay: Activation of TRPV1-transfected cells; format: cell-based
# T2 construct: expressed in transfected cells
# T2 sequence (Q8NER1 whole entry): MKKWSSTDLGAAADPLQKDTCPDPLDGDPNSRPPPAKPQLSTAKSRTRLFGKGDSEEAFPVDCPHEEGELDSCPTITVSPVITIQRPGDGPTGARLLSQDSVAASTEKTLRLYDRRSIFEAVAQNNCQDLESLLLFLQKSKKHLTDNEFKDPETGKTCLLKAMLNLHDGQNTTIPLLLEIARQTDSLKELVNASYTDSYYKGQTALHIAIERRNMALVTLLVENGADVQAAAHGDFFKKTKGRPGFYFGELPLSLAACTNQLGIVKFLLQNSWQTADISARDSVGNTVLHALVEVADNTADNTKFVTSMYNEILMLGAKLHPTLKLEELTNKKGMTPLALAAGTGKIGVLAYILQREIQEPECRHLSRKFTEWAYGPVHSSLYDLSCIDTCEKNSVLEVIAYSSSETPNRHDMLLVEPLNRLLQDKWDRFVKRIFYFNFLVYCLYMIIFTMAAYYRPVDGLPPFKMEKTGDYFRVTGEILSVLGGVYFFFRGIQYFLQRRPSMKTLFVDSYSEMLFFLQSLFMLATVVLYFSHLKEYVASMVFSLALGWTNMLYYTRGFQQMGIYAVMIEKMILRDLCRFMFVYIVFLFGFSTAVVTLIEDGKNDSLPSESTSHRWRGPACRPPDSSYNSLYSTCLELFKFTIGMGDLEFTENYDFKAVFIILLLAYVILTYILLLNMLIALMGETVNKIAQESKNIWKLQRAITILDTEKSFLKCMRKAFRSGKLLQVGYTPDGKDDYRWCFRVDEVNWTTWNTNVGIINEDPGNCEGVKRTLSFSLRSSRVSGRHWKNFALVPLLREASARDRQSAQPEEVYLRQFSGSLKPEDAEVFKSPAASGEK
smiles,measurement,setting,value
"CCCCCCP(=O)(C(C)C)C(C)C [DIPA-1-6, 1-Di(isopropyl)-phosphinoyl-hexane]",Duration of immediate cooling relief,[1]; 200 mL carbonated soda water containing 15 mg,30 min
same,Onset of cooling action in the chest (in words),[1],immediate
same,Duration of Cooling,[2],20 min
same,"Dose sufficient for a robust, immediate cooling response",[2],10 mg
CCCCCCCCCCP(=O)(C(C)C)C(C)C [DIPA-1-10],Duration of Cooling,[2],0 min
same,Water solubility,[3],<3 mg/mL
same,EC50,[4],inactive
"CCCCCCCCP(=O)(C(C)C)C(C)C [DIPA-1-8, 1-Di(isopropyl)-phosphinoyl-octane]",Duration of effects (in words),[1],more long-lasting
same,Effective dose,[1]; in a whiskey glass,15 mg
same,Duration of Cooling,[2],43 min
"CCCCCP(=O)(C(C)C)C(C)C [DIPA-1-5, 1-Di(isopropyl)-phosphinoyl-pentane]",Onset of cooling action in the chest (in words),[1],immediate
same,Duration of Cooling,[2],12 min
same,"Dose sufficient for a robust, immediate cooling response",[2],10 mg
"CCCCCCCCCP(=O)(C(C)C)C(C)C [DIPA-1-9, 1-Diisopropyl-phosphinoyl-nonane]",Activation of TRPA1-transfected cells,[5],does not activate
same,Duration,"[1]; 0.4 mg/L, apple juice (Martinelli, Mott's), 21 °C",34 min
same,Duration,"[1]; 0.4 mg/L, grape juice (Welch Grape), 20 °C",35 min
same,Duration,"[1]; 0.4 mg/L, guarana juice soda (Guarana Antarctica), 10 °C",40 min
same,Duration,"[1]; 0.4 mg/L, orange juice (fresh-squeezed), 8 °C",40 min
same,Duration,"[1]; 0.4 mg/L, sweetened soda (Coca-Cola), 7 °C",25 min
same,Duration,"[1]; 0.4 mg/L, wine (Moscato d'Asti), 8 °C",36 min
same,Duration,"[1]; 0.4 mg/mL, hot cappuccino drink (3 Coracoes, Brazil), 70 °C",30 min
same,Duration,"[1]; 0.4 mg/mL, hot coffee + herbal sweetener (117 + Stevia extracts), 75 °C",36 min
same,Duration,"[1]; 0.4 mg/mL, hot coffee cream/sugar (117, Nescafe), 65 °C",35 min
same,Duration,"[1]; 0.4 mg/mL, hot coffee-no cream or sugar (117, Nescafe), 62 °C",30 min
same,Duration,"[1]; 0.4 mg/mL, hot water + monk fruit (Splenda monk fruit), 50 °C",42 min
same,Duration,"[1]; 0.4 mg/mL, hot water + monk fruit (Splenda monk fruit), 70 °C",38 min
same,Duration,"[1]; 0.4 mg/mL, iced cold cappuccino (Starbuck's frappaccino), 8 °C",25 min
same,Duration,"[1]; 0.4 mg/mL, red tea (Peach-Ceylon, no sweetener), 46 °C",31 min
same,Duration,"[1]; 0.4 mg/mL, sweetened tea (Ito En + 10% sucrose), 10 °C",38 min
same,Duration,"[1]; 0.4 mg/mL, sweetened tea (Ito En + Truvia or Monk's Fruit), 10 °C",40 min
same,Duration,"[1]; 0.4 mg/mL, unsweetened green tea (Ito En), 10 °C",35 min
same,Duration Cool,"[1]; carbonated water (Perrier, La Croix), 8 °C",45 min
same,Duration Cool,"[1]; water (Crystal Geyser), 10 °C",48 min
same,Duration Cool,"[1]; water (Crystal Geyser), 25 °C",42 min
same,Duration Cool,"[1]; water (Crystal Geyser), 74 °C",45 min
same,Duration Cool,"[1]; water + herbal sweetener (+Stevia leaf), 8 °C",40 min
same,Duration Cool,"[1]; water + herbal sweetener (+Stevia leaf), 22 °C",35 min
same,Duration Cool,"[1]; water + herbal sweetener (+Stevia leaf), 72 °C",32 min
same,Duration Cool,"[1]; water + synthetic sweetener (Neotame at 0.2 mg/mL), 10 °C",40 min
same,Min. (cooling),"[1]; 0.2 mg/mL + Stevia, 20 °C",12 min
same,Min. (cooling),"[1]; 0.4 mg/mL + Stevia, 20 °C",35 min
same,Min. (cooling),"[1]; 0.4 mg/mL + Sucrose (10%), 20 °C",42 min
same,Min. (cooling),"[1]; 0.8 mg/mL + Stevia, 20 °C",55 min
same,Min. (cooling),"[1]; 0.8 mg/mL + Sucrose (10%), 20 °C",39 min
same,Min. (cooling),"[1]; 0.8 mg/mL + Sucrose (15%), 20 °C",45 min
same,Duration,"[1]; Sake (Japanese rice wine), 10 °C",32 min
same,Duration,"[1]; beer (Heineken), 7 °C",44 min
same,Duration of comfortable body cooling,"[1]; bottle of beer ~330 mL containing 33 mg, drunk over one hour",3 h
same,Duration of effects (in words),[1],more long-lasting
same,Duration,"[1]; ginger ale (Canada Dry), 11 °C",25 min
same,Duration,"[1]; ginger beer, juice (Q beer, Suja), 9 °C",40 min
same,Effective dose,[1]; in a standard beer bottle,33 mg
same,Duration,"[1]; non-alcoholic beer (Heineken 00), 7 °C",40 min
same,Duration,"[1]; tonic water with quinine (Schweppes), 7 °C",42 min
same,Duration,"[1]; wheat ale (Blue Moon), 9 °C",35 min
same,Onset of relief,[6],within several minutes
same,Relief after a hotpot meal (in words),[6],relieves the pain in the oral cavity and throat
same,Duration of Cooling,[2],48 min
same,Activation of TRPV1-transfected cells,[7],does not activate
"CCCCCCCP(=O)(C(C)C)C(C)C [DIPA-1-7, 1-Di(isopropyl)-phosphinoyl-heptane]",Onset of cooling action in the chest (in words),[1],immediate
same,Duration of Cooling,[2],36 min
CCCCCP(=O)(C(C)CC)C(C)CC (centres unmarked) [di-sec-butyl- pentane],Water solubility,[3],22 mg/mL
